# The source made the active and inactive calls. The rule behind the calls is not given here.
# What was measured:
# [1] = Inhibition of fluconazole sensitive Candida glabrata ATCC 2001 […] cell adhesion to polystyrene at 200 ug/ml incubated for 90 mins by MTT assay; assay type: functional; settings: Nakaseomyces glabratus, ATCC 2001, 1.5 h
# Nakaseomyces glabratus [2] = assay: Indifferent antifungal activity against fluconazole resistant Candida glabrata 109 overexpressing CgCdr1p transporter assessed as reduction in fungal growth incubated for 48 hrs by checkboard assay based microplate reader analysis; assay type: functional
# Nakaseomyces glabratus [3] = assay: Indifferent antifungal activity against fluconazole sensitive Candida glabrata ATCC 2001 assessed as fractional inhibitory concentration incubated for 48 hrs in presence of fluconazole by checkboard assay based microplate reader analysis; assay type: functional
# Nakaseomyces glabratus [4] = assay: Additive antifungal activity against fluconazole resistant Candida glabrata 109 overexpressing CgCdr1p transporter assessed as fractional inhibitory concentration incubated for 48 hrs in presence of fluconazole by checkboard assay based microplate reader analysis; assay type: functional
# Saccharomyces cerevisiae [5] = assay: Induction of ROS generation in fluconazole resistant Saccharomyces cerevisiae overexpressing CgCdr2p transporter assessed as fold increase in ROS level incubated for 90 mins by DCFH-DA dye based fluorescence assay; assay type: functional; settings: 1.5 h
# Nakaseomyces glabratus [6] = assay: Antibiofilm activity against fluconazole resistant Candida glabrata 109 overexpressing CgCdr1p transporter assessed as reduction in metabolic activity at highest concentration incubated for 48 hrs; assay type: functional; design: scale not given: the % may be the effect or the level left
# Saccharomyces cerevisiae [7] = assay: Induction of ROS generation in fluconazole resistant Saccharomyces cerevisiae overexpressing CgCdr1p transporter assessed as fold increase in ROS level incubated for 90 mins by DCFH-DA dye based fluorescence assay; assay type: functional; settings: 1.5 h
# Nakaseomyces glabratus [8] = assay: Antibiofilm activity against fluconazole sensitive Candida glabrata ATCC 2001 assessed as reduction in metabolic activity up to 200 ug/ml incubated for 48 hrs; assay type: functional; design: scale not given: the % may be the effect or the level left; settings: dose <= 200 µg/ml, up to 200 µg/mL
# Nakaseomyces glabratus [9] = assay: Additive antifungal activity against fluconazole resistant Candida glabrata 109 overexpressing CgCdr1p transporter assessed as reduction in fungal growth incubated for 48 hrs in presence of lapachone by checkboard assay based microplate reader analysis; assay type: functional
# Saccharomyces cerevisiae [10] = assay: Effect on efflux pump function in fluconazole resistant Saccharomyces cerevisiae overexpressing CgCdr2p transporter assessed as accumulation of Nile red fluorescence incubated for 1 hr by fluorescence based assay; assay type: functional
# Nakaseomyces glabratus [11] = assay: Antifungal activity against fluconazole sensitive Candida glabrata ATCC 2001 assessed as reduction in fungal growth incubated for 48 hrs by checkboard assay based microplate reader analysis; assay type: functional
# Nakaseomyces glabratus [12] = assay: Additive antifungal activity against fluconazole resistant Candida glabrata 109 overexpressing CgCdr1p transporter assessed as reduction in fungal growth incubated for 48 hrs in presence of fluconazole by checkboard assay based microplate reader analysis; assay type: functional
# Saccharomyces cerevisiae [13] = assay: Synergistic antifungal activity against fluconazole resistant Saccharomyces cerevisiae overexpressing CgCdr2p transporter assessed as fractional inhibitory concentration index incubated for 48 hrs by checkboard assay based microplate reader analysis; assay type: functional
# Nakaseomyces glabratus [14] = assay: Indifferent antifungal activity against fluconazole sensitive Candida glabrata ATCC 2001 assessed as fractional inhibitory concentration incubated for 48 hrs in presence of lapachone by checkboard assay based microplate reader analysis; assay type: functional
# Saccharomyces cerevisiae [15] = assay: Antifungal activity against fluconazole resistant Saccharomyces cerevisiae overexpressing CgCdr2p transporter assessed as reduction in fungal growth incubated for 48 hrs by checkboard assay based microplate reader analysis; assay type: functional
# Nakaseomyces glabratus [16] = assay: Antifungal activity against fluconazole resistant Candida glabrata 109 overexpressing CgCdr1p transporter assessed as reduction in fungal growth incubated for 48 hrs in presence of fluconazole by serial dilution method; assay type: functional, organism-based
# Saccharomyces cerevisiae [17] = assay: Effect on efflux pump function in fluconazole resistant Saccharomyces cerevisiae overexpressing CgCdr1p transporter assessed as accumulation of Nile red fluorescence incubated for 1 hr by fluorescence based assay; assay type: functional
# Nakaseomyces glabratus [18] = assay: Indifferent antifungal activity against fluconazole resistant Candida glabrata 109 overexpressing CgCdr1p transporter assessed as fractional inhibitory concentration index incubated for 48 hrs by checkboard assay based microplate reader analysis; assay type: functional
# Nakaseomyces glabratus [19] = assay: Effect on efflux pump function in fluconazole resistant Candida glabrata 109 overexpressing CgCdr1p transporter assessed as accumulation of Nile red fluorescence incubated for 1 hr by fluorescence based assay; assay type: functional
# Nakaseomyces glabratus [20] = assay: Antibiofilm activity against fluconazole resistant Candida glabrata 109 overexpressing CgCdr1p transporter assessed as inhibition of biofilm formation at 200 ug/ml incubated for 48 hrs; assay type: functional
# Nakaseomyces glabratus [21] = assay: Induction of ROS generation in fluconazole resistant Candida glabrata 109 overexpressing CgCdr1p assessed as fold increase in ROS level incubated for 90 mins by DCFH-DA dye based fluorescence assay; assay type: functional; settings: 1.5 h
# Saccharomyces cerevisiae [22] = assay: Antifungal activity against fluconazole resistant Saccharomyces cerevisiae overexpressing CgCdr2p transporter assessed as reduction in fungal growth incubated for 48 hrs in presence of fluconazole by serial dilution method; assay type: functional, organism-based
# Nakaseomyces glabratus [23] = assay: Indifferent antifungal activity against fluconazole sensitive Candida glabrata ATCC 2001 assessed as reduction in fungal growth incubated for 48 hrs in presence of lapachone by checkboard assay based microplate reader analysis; assay type: functional
# Nakaseomyces glabratus [24] = assay: Induction of morphological changes in fluconazole resistant Candida glabrata 109 overexpressing CgCdr1p transporter assessed as decrease in biofilm thickness at 200 ug/ml by calcofluor white dye based confocal laser scanning microscopy; assay type: functional, organism-based; settings: dose 200.0 µg/ml
# Nakaseomyces glabratus [25] = assay: Indifferent antifungal activity against fluconazole sensitive Candida glabrata ATCC 2001 assessed as fractional inhibitory concentration index incubated for 48 hrs by checkboard assay based microplate reader analysis; assay type: functional
# Nakaseomyces glabratus [26] = assay: Antibiofilm activity against fluconazole sensitive Candida glabrata ATCC 2001 assessed as inhibition of biofilm formation at 200 ug/ml incubated for 48 hrs; assay type: functional
# Nakaseomyces glabratus [27] = assay: Induction of morphological changes in fluconazole resistant Candida glabrata 109 overexpressing CgCdr1p transporter assessed as decrease in number of cells within biofilm at 200 ug/ml incubated for 48 hrs by SEM analysis; assay type: functional, organism-based; settings: dose 200.0 µg/ml
# Saccharomyces cerevisiae [28] = assay: Antifungal activity against fluconazole resistant Saccharomyces cerevisiae overexpressing CgCdr1p transporter assessed as reduction in fungal growth incubated for 48 hrs in presence of fluconazole by serial dilution method; assay type: functional, organism-based
# Nakaseomyces glabratus [29] = assay: Indifferent antifungal activity against fluconazole resistant Candida glabrata 109 overexpressing CgCdr1p transporter assessed as reduction in fungal growth incubated for 48 hrs in presence of fluconazole by checkboard assay based microplate reader analysis; assay type: functional
# Saccharomyces cerevisiae [30] = assay: Inhibition of fluconazole resistant Saccharomyces cerevisiae overexpressing CgCdr1p transporter ATPase activity assessed as reduction in inorganic phosphate release in presence of ATP incubated for 1 hr by Fiske and Sub barrow method; settings: concentration not given here
# Nakaseomyces glabratus [31] = assay: Additive antifungal activity against fluconazole resistant Candida glabrata 109 overexpressing CgCdr1p transporter assessed as fractional inhibitory concentration index incubated for 48 hrs by checkboard assay based microplate reader analysis; assay type: functional
# Nakaseomyces glabratus [32] = assay: Indifferent antifungal activity against fluconazole resistant Candida glabrata 109 overexpressing CgCdr1p transporter assessed as reduction in fungal growth incubated for 48 hrs in presence of lapachone by checkboard assay based microplate reader analysis; assay type: functional
# Nakaseomyces glabratus [33] = assay: Induction of morphological changes in fluconazole resistant Candida glabrata 109 overexpressing CgCdr1p transporter assessed as decrease in cellular density at 200 ug/ml by calcofluor white dye based confocal laser scanning microscopy; assay type: functional, organism-based; settings: dose 200.0 µg/ml
# Nakaseomyces glabratus [34] = assay: Induction of morphological changes in fluconazole resistant Candida glabrata 109 overexpressing CgCdr1p transporter assessed as decrease in cell-cell adhesion at 200 ug/ml by calcofluor white dye based confocal laser scanning microscopy; assay type: functional, organism-based; settings: dose 200.0 µg/ml
Structure (SMILES),inhibition at 200 µg/mL [1],MIC (Nakaseomyces glabratus [2]),FIC (Nakaseomyces glabratus [3]),FIC (Nakaseomyces glabratus [4]),fold change (FC) (Saccharomyces cerevisiae [5]),Activity (Nakaseomyces glabratus [6]),fold change (FC) (Saccharomyces cerevisiae [7]),Activity (Nakaseomyces glabratus [8]),MIC (Nakaseomyces glabratus [9]),Activity (Saccharomyces cerevisiae [10]),MIC (Nakaseomyces glabratus [11]),MIC (Nakaseomyces glabratus [12]),fractional inhibitory concentration index (FICI) (Saccharomyces cerevisiae [13]),FIC (Nakaseomyces glabratus [14]),MIC (Saccharomyces cerevisiae [15]),Activity (Nakaseomyces glabratus [16]),Activity (Saccharomyces cerevisiae [17]),fractional inhibitory concentration index (FICI) (Nakaseomyces glabratus [18]),Activity (Nakaseomyces glabratus [19]),inhibition at 200 µg/mL (Nakaseomyces glabratus [20]),further results
CC1(C)CCC2=C(O1)c1ccccc1C(=O)C2=O [LAPACHONE],55%,> 200 µg/mL,1 µg/mL,0.125 µg/mL,3,88%,3,93%,12.5 µg/mL,50%,12.5 µg/mL,31.2 µg/mL,0.31,1 µg/mL,25 µg/mL,Active,100%,2,35%,72%,fold change (FC) (Nakaseomyces glabratus [21]): 5; Activity (Saccharomyces cerevisiae [22]): Active; MIC (Nakaseomyces glabratus [23]): 12.5 µg/mL; Activity (Nakaseomyces glabratus [24]): Active; fractional inhibitory concentration index (FICI) (Nakaseomyces glabratus [25]): 2; inhibition at 200 µg/mL (Nakaseomyces glabratus [26]): 95%; Activity (Nakaseomyces glabratus [27]): Active; Activity (Saccharomyces cerevisiae [28]): Active; MIC (Nakaseomyces glabratus [29]): > 1000 µg/mL; inhibition (Saccharomyces cerevisiae [30]): 76%; fractional inhibitory concentration index (FICI) (Nakaseomyces glabratus [31]): 0.625; MIC (Nakaseomyces glabratus [32]): > 200 µg/mL; Activity (Nakaseomyces glabratus [33]): Active; Activity (Nakaseomyces glabratus [34]): Active
CC1(C)CC2=C(O1)c1ccccc1C(=O)C2=O [NOR-BETA-LAPACHONE],28%,> 200 µg/mL,1 µg/mL,0.125 µg/mL,3,46%,3,81%,50 µg/mL,50%,15.6 µg/mL,31.2 µg/mL,0.37,1 µg/mL,25 µg/mL,Active,100%,2,100%,48%,fold change (FC) (Nakaseomyces glabratus [21]): 5; Activity (Saccharomyces cerevisiae [22]): Active; MIC (Nakaseomyces glabratus [23]): 100 µg/mL; Activity (Nakaseomyces glabratus [24]): Active; fractional inhibitory concentration index (FICI) (Nakaseomyces glabratus [25]): 2; inhibition at 200 µg/mL (Nakaseomyces glabratus [26]): 70%; Activity (Nakaseomyces glabratus [27]): Active; Activity (Saccharomyces cerevisiae [28]): Active; MIC (Nakaseomyces glabratus [29]): > 1000 µg/mL; inhibition (Saccharomyces cerevisiae [30]): 25%; fractional inhibitory concentration index (FICI) (Nakaseomyces glabratus [31]): 0.625; MIC (Nakaseomyces glabratus [32]): > 200 µg/mL; Activity (Nakaseomyces glabratus [33]): Active; Activity (Nakaseomyces glabratus [34]): Active

# — ChEMBL document CHEMBL5120826, “Effects of β-lapachone and β-nor-lapachone on multidrug efflux transporters and biofilms of Candida glabrata” (Bioorg Med Chem, 2022)
